# Measurements as given in paper PMC12040169 (PLOS Biology, 2025).
# Assay: in vitro
# Details: human, hela cells, % viability
row,SMILES,"viability at 28.5 h, 10 µM"
1,COc1ccc(NC(=S)NC(=O)CN2C(=O)c3ccccc3C2=O)c([N+](=O)[O-])c1 [CBK267594],114%
2,O=C1NCCCC12CCN(Cc1cccs1)CC2 [CBK285346],85.2%
3,CC(C)n1nnnc1-c1ccccc1NS(=O)(=O)C1CC1 [CBK305509],97.7%
4,Cc1ccc2c(c1)CCCN2C(=O)c1cccnc1NCc1ccc2c(c1)OCO2 [CBK160113],94.5%
5,Cc1ccc(Nc2cc(-c3cccnc3)ncn2)cc1NS(C)(=O)=O [CBK091147],91.2%
6,O=C(c1ccc2ncsc2c1)N1CCN(S(=O)(=O)c2ccc(C(F)(F)F)cc2)CC1 [CBK295285],98.2%
7,Cc1ccc2c(c1)C(=O)NCC1(CCN(C(=O)c3ccco3)CC1)O2 [CBK282894],100%
8,O=C(O)c1cc(-c2ccccc2)nc(Nc2nc3ccccc3s2)n1 [CBK264665],108%
9,O=C(NCc1ccccn1)c1ccc(CNS(=O)(=O)c2cccc(C(F)(F)F)c2)cc1 [CBK267291],87.7%
10,Clc1ccc(-c2cncc(NCCc3ccncc3)n2)cc1 [CBK065787],99.5%
11,NNC(=O)c1cc(O)n[nH]1 [CBK262669],106%
12,O=C(CN1CCN(C(c2ccccc2)c2ccccc2)CC1)CN1C(=O)c2ccccc2C1=O [CBK261682],97.3%
13,CC1Cc2cc(CC(=O)N(C)CC(F)(F)F)ccc2O1 (stereo not drawn) [CBK283067],109%
14,O=C(C1CCCC1)N1CCC(c2cccc(Cc3ccccc3Cl)n2)CC1 [CBK286507],87.6%
15,Cc1oc2ccc(O)cc2c1C(=O)N(C)C(C)Cc1ccccn1 (stereo not drawn) [CBK282627],96.2%
16,CCCCN(CC(N)=O)C(=O)c1sc(COc2ccc(Cl)cc2)nc1C [CBK304539],101%
17,N#Cc1nc(/C=C/c2cccs2)oc1NCCCn1ccnc1 [CBK269455],84.1%
18,COc1ccccc1N1CCN(c2cc(N3CCNCC3)ccc2[N+](=O)[O-])CC1 [CBK293931],85.1%
19,COCCCOc1cc(N2CCCC2)ncn1 [CBK115896],102%
20,C/C(=C\C(=O)Nc1ccc(O)cc1C(=O)O)c1ccccc1 [CBK265125],115%
21,CCOC(=O)CCNC(=O)N(CC)Cc1ccccc1 [CBK155228],88.7%

row,SMILES,"viability at 28.5 h, 10 µM"
1,C[C@@H](Nc1cncc(-c2ccccc2CO)n1)c1ccccc1 [CBK065543],106%
2,COc1ccc(OCCNC(=O)c2ccc(-c3cccc(N(C)C)c3)nc2N(C)C(C)=O)cc1 [CBK076587],92.8%
3,OC(CNCc1ccc2c(c1)OCO2)COc1ccc(SC(F)(F)F)cc1 (stereo not drawn) [CBK074691],120%
4,Cc1cc(/C=C2\SC(=O)N(CC(=O)Nc3ccccc3F)C2=O)c(C)n1-c1cccnc1 [CBK264770],95.5%
5,O=S(=O)(NC1CCCCC1)c1ccc(S(=O)(=O)N2CCOCC2)cc1 [CBK269618],102%
6,Cc1cccc(NC(=O)Cn2cc(C(=O)COc3ccccc3)c3ccccc32)c1 [CBK268654],104%
7,Cc1c(C(=O)O)sc(S(=O)(=O)N2CCN(C(=O)c3ccc(F)cc3)CC2)c1C(=O)O [CBK297118],107%
8,O=C(O)c1cccc(NS(=O)(=O)c2ccc(-c3cc(C(F)(F)F)on3)s2)c1 [CBK155722],98%
9,COc1ccc(NC(=O)c2cc([N+](=O)[O-])ccc2N2CCN(C)CC2)cc1 [CBK263017],102%
10,COc1ccc([C@@]23CC[C@@H](NC(=O)Nc4cccc(-c5cnco5)c4)C[C@@H]2N(C)CC3)cc1OC [CBK059338T],92.3%
11,Cc1ccc(OCc2occc2C(=O)N2CCCCC(N)C2)cc1 (stereo not drawn) [CBK306840],107%
12,OCCOc1cccnc1OCC1CC1 [CBK001461],89.4%
13,CCN(Cc1ccc(OC)c(OC)c1)C(=O)CSc1nc(CC(=O)O)cs1 [CBK296643],97.5%
14,CCOC(=O)C1CCN(S(=O)(=O)c2ccccc2C#N)CC1 [CBK051111],93.6%
15,CCOC(=O)CC1C(=O)NCCN1C/C=C\c1ccccc1OC (stereo not drawn) [CBK269791],94.3%
16,CC1Cc2cc(C(=O)N3CCCCC3CCN3CCCC3)ccc2O1 (stereo not drawn) [CBK282094],100%
17,COc1cc(/C=C2/C(=O)N(c3ccc(Cl)c(C(=O)O)c3)N=C2C)ccc1Oc1nc2c(c(=O)n(C)c(=O)n2C)n1C [CBK262962],91.1%
18,COc1ccccc1CC(C)NC(=O)CC1CCN(c2nc(C)cc(C)n2)CC1 (stereo not drawn) [CBK285956],111%
19,CC(=O)Nc1ccc(C2=NC3SC(c4ccc(NC(C)=O)cc4)=NC3S2)cc1 (stereo not drawn) [CBK019799],103%
20,Cc1c(CN2CCC(N(C)CCN(C)C)CC2)oc2ccccc12 [CBK282038],86.1%
21,c1ccc2c(-c3cn4ccnc4c(N4CCOCC4)n3)cccc2c1 [CBK037387],91.6%

row,SMILES,"viability at 28.5 h, 10 µM"
1,c1ccc2c(c1)CCN2c1ncnc2c1nc1n2CCCCC1 [CBK291119],91.1%
2,COc1ccc(CCNC(=O)c2nc3ncccn3n2)cc1OC [CBK268795],90.4%
3,O=C(NCCc1ccccc1)N(Cc1ccc(-c2ccccc2)cc1)CC1CCNCC1 [CBK049792],106%
4,COc1cc(C(=O)N2CCCC3(CCN(C(=O)c4cc(F)c(F)cc4F)C3)C2)cc(OC)c1OC (stereo not drawn) [CBK131563],106%
5,CC(C)(C)c1ccc(NC(=O)n2ccc3c(N4CCNCC4)cccc32)cc1 [CBK003736C],27%
6,Cc1ccc(NC(=O)C2CN(S(=O)(=O)c3ccccc3)CCN2S(=O)(=O)c2ccccc2)c(C)c1 (stereo not drawn) [CBK262693],83.8%
7,O=C(Cn1c(=O)oc2ccccc21)Nc1cccc(C(=O)O)c1 [CBK267641],97.4%
8,COc1ccc2c(c1)C1(CC(=O)N(C)C1=O)C(=O)N2CCCC(=O)O (stereo not drawn) [CBK076109],77.3%
9,Cc1cc(C)c(C)c(S(=O)(=O)NCCOCCO)c1C [CBK269153],88.6%
10,CCCCN(CC)S(=O)(=O)c1ccc(-n2ncc(Cl)c(Cl)c2=O)cc1 [CBK305036],6.38%
11,C=C(Br)Cn1c(COc2cccc3ccccc23)nc2ccccc21 [CBK263373],97.3%
12,CNCC(=O)N[C@H]1CCN2C(=O)c3ccc(Cl)cc3NC(=O)[C@@H]2C1 [CBK289566],83.6%
13,CC1Cc2cc(C(O)(CCN(C)C)c3ccccc3)ccc2O1 (stereo not drawn) [CBK011764],110%
14,Cc1nccn1CCN(C)C(=O)c1ccc2c(c1)ncn2C [CBK281993],98.8%
15,Cc1cc(C)n(-c2ccc(CN3C(=O)NC4(CCCC4)C3=O)cc2)n1 [CBK305796],88.3%
16,O=C(NC(NCc1ccco1)C(Cl)(Cl)Cl)c1ccc(Br)cc1 (stereo not drawn) [CBK262174],89%
17,COc1ccc(C(=O)NCC(=O)Nc2ccc(N3CCCCC3)cc2)cc1OC [CBK295199],94.3%
18,CC(C)CNc1nccnc1-c1cccc(C=O)c1 [CBK088744],100%
19,O=C(NCc1ccccc1)c1ccc2nc[nH]c2c1 [CBK143739],91.9%
20,CCOC(=O)CN1CCC(Oc2nccnc2OCCN2CCOCC2)CC1 [CBK082929],103%
21,c1ccc(CCN2CCCN(c3ccnc(OCCN4CCOCC4)n3)CC2)nc1 [CBK083813],94.9%
